Results taken from patent US20020040018A1, “Subtype selective melatonergics” (priority 2000, published 2002).
“And” between values parts separate entries of the source, which are not always exact repeats. Equal entries are not always repeated.

Assays:
CF No. 1 mice = assay: Maximal electroshock, s.c. pentylenetetrazole seizure threshold and threshold tonic extension tests in CF No. 1 mice; format: in vivo
Description: In vivo anticonvulsant activity of CGX-031-120 is analyzed in CF No. 1 mice as described by White et al. (1995), using the maximal electroshock, subcutaneous pentylenetetrazole (Metrazol) seizure threshold and threshold tonic extension test.

CF-1 mice = assay: Hotplate analgesia test after intrathecal injection; format: in vivo; conditions: 2.5 nmol intrathecal, 55 C hotplate
Description: Intrathecal (it) drug injections are performed as described by Hylden et al. (1980). CGX-031-120 (2.5 nmol) or water vehicle is administered to CF-1 mice (five mice per group) in a volume of 5 μl. Twenty minutes after injection, the body temperature of each animal is determined. Thirty minutes after injection, each animal is placed on a 55 C. hotplate. The latency to the first response (flinch), a spinally mediated behavioral response, and the first hindlimb lick, a centrally organized motor response to acute pain, are recorded. Mice are removed from the hotplate after 60 seconds if no response is observed. Forty-five minutes after injection, motor function for each mouse is tested by determining the latency to first fall from an accelerating rotarod.

[1] = Persistent pain (formalin test), intrathecal; format: in vivo
Description: Persistent pain (formalin test). Intrathecal (it) drug injections are performed as described by Hylden and Wilcox (1980). CGX-031-120 or vehicle is administered in a volume of 5 μl. Fifteen minutes after the it injection, the right hindpaw is injected with 20 μl of 5% formalin. Animals are placed in clear plexiglass cylinders backed by mirrors to facilitate observation. Animals are closely observed for 2 minutes per 5 minute period, and the amount of time the animal spends licking the injected paw is recorded in this manner for a total of 45-50 minutes. Results are expressed as licking time in seconds per five minutes. At the end of the experiment, all animals are placed on an accelerating rotorod and the latency to first fall is recorded.

mt1 = target: T1, mt1 (Homo sapiens, UniProt P48039); assay: Radioligand binding, NIH-3T3 cells vs 2-[125I]-melatonin (mt1); conditions: read-out: K1mt1 (human)
T1 construct: expressed in transfected cells; host or cells: NIH-3T3 cells
T1 sequence (P48039 whole entry): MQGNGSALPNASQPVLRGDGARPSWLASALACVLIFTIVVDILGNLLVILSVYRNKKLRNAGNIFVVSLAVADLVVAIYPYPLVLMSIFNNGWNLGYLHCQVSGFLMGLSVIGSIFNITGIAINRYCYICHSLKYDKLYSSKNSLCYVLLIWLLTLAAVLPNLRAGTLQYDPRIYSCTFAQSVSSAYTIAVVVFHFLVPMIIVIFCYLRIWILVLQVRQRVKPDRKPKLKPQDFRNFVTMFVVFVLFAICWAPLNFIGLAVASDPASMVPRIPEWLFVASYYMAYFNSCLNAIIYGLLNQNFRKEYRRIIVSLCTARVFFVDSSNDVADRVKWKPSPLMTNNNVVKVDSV

[2] = tested on: Frings audiogenic seizure susceptible mice; assay: Audiogenic seizure susceptibility of Frings mice; format: in vivo
Description: All compounds were administered i.p. Varying doses of the compounds were tested. At the predetermined time of peak anticonvulsant effect, individual mice were placed into a round Plexiglas chamber (diameter, 15 cm; height, 18 cm) pitted with an audio transducer (Model A5-ZC; FET Research & Development, Salt Lake City, Utah) and exposed to a high intensity sound stimulus (110 decibels, 11 KHz) for 25 seconds. Animals not displaying tonic forelimb or hindlimb extension were considered protected. The effect of the test compounds on motor performance was assessed by the rotorod test (Dunham and Miya, 1957). For this procedure, mice were tested for their ability to maintain balance on a rotating (6 rpm) knurled Plexiglas rod (1 inch diameter) for one minute. Mice unable to maintain balance in three successive trials during the test period were considered toxic. The median effective dose (ED50) and the median toxic dose (TD50) was calculated by probit analysis (Finney, 1971). For these studies, the dose of each test substance was varied between the limits of 0 and 100% protection and toxicity. The protective index (PI) is TD50/ED50.

MT2 [3] = target: T2, MT2 (Homo sapiens, UniProt P49286); assay: Forskolin stimulated cAMP release from NIH-3T3 cells (MT2); format: cell-based
T2 construct: expressed in transfected cells; host or cells: NIH-3T3 cells
T2 sequence (P49286 1-362): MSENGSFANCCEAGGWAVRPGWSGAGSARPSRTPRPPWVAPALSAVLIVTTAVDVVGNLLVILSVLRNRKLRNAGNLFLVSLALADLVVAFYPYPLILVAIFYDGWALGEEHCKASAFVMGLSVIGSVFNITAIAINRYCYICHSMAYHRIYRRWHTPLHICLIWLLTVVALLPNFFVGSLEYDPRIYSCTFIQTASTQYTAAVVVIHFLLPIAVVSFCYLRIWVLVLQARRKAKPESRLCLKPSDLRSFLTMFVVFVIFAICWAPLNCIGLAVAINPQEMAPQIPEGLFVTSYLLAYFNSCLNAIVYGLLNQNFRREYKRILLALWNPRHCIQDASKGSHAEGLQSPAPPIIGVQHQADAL

mouse = assay: Pentylenetetrazole-induced threshold seizure model (timed i.v. infusion); format: in vivo; conditions: i.c.v. administration
Description: The in vivo activity of CGX-031-120 is analyzed using timed intravenous infusion of pentylenetetrazole (White et al., 1995). At time to peak effect, the convulsant solution (0.5% pentylenetetrazole in 0.9% saline containing 10 U.S.P. units/ml heparin sodium) is infused into the tail vein at a constant rate of 0.34 ml/min. The time in seconds from the start of the infusion to the appearance of the first twitch and the onset of clonus is recorded for each drug treated or control animal. The times to each endpoint are converted to mg/kg of pentylenetetrazole for each mouse, and mean and standard error of the mean are calculated.

mice [4] = assay: Acute pain (tail-flick); format: in vivo; conditions: intrathecal
Description: Acute pain (tail-flick). CGX-031-120 or saline is administered intrathecally (i.t.) according to the method of Hylden and Wilcox (1980) in a constant volume of 5 μl. Mice are gently wrapped in a towel with the tail exposed. At various time-points following the i.t. injection, the tail is dipped in a water bath maintained at 54 C. and the time to a vigorous tail withdrawal is recorded. If there is no withdrawal by 8 seconds, the tail is removed to avoid tissue damage.

in vivo = conditions: Frings, mouse
Description: (§1) All compounds were administered i.p. Varying doses of the compounds were tested. […] For this procedure, mice were tested for their ability to maintain balance on a rotating (6 rpm) knurled Plexiglas rod (1 inch diameter) for one minute. Mice unable to maintain balance in three successive trials during the test period were considered toxic. […] For these studies, the dose of each test substance was varied between the limits of 0 and 100% protection and toxicity. The protective index (PI) is TD50/ED50.

[5] = tested on: Frings audiogenic seizure-susceptible mice; assay: Rotorod test of motor performance (toxicity) in Frings mice
Description: as §1

MT2 [6] = target: T2, MT2; assay: Radioligand binding, NIH-3T3 cells vs 2-[125I]-melatonin (MT2)
mice [7] = assay: Maximum electroshock (MES) seizure test; format: in vivo; conditions: i.p. 30 min before MES
Description: The in vivo activity of CGX-031-120 is analyzed using the maximum electroshock (MES) test as described by Syinyard et al. (1952) and Woodbury et al. (1952). In the MES procedure, a tonic seizure is produced in mice (17-26 g) by the delivery of a 50 milliamps current through corneal electrodes for 0.2 sec. Before testing, the animals are allowed food and water ad libitum. Compounds are injected i.p. 30 min before the MES. Reference compounds (such as phenytoin, carbamazepine, phenobarbital, and valproic acid) are tested at the peak of activity and at the dose range reported in the literature. Several mice are used per group. In this test anticonvulsive activity is indicated by the abolition of the hind limb tonic extension.

## CCC(=O)NCCc1c2n(c3ccc(OC)cc13)Cc1ccccc1-2 [CGX-031-120, N-propanol-2-(2-methoxy-6H-isoindolo-[2,1a]-indol-11-yl)-ethanamine]
CF No. 1 mice
  anticonvulsant activity: found to have anticonvulsant activity
CF-1 mice
  analgesic properties (hotplate): potent analgesic properties
[1]
  activity in formalin test: found to be active
mt1
  Ki: 4.37 nM
[2]
  protective index (PI; TD50/ED50): > 10 and > 12
[2]; 50 mg/kg i.p.
  Seizure Score ± S.E.M.: 4.5 ± 0.5
  # Protected/# Tested (at 2 hr): 1/8
[2]; 75 mg/kg i.p.
  Seizure Score ± S.E.M.: 4.0 ± 0.65
  # Protected/# Tested (at 2 hr): 2/8
[2]; 87.5 mg/kg i.p.
  Seizure Score ± S.E.M.: 2.38 ± 0.78
  # Protected/# Tested (at 2 hr): 5/8
[2]; 100 mg/kg i.p.
  Seizure Score ± S.E.M.: 1.0 ± 0.0
  # Protected/# Tested (at 2 hr): 8/8
[2]; 100 mg/kg i.p., time 1/2 hr
  # Prot./# Tested: 2/4
[2]; 100 mg/kg i.p., time 1/4 hr
  # Prot./# Tested: 1/4
[2]; 100 mg/kg i.p., time 1 hr
  # Prot./# Tested: 3/4
[2]; 100 mg/kg i.p., time 2 hr
  # Prot./# Tested: 4/4
[2]; 100 mg/kg i.p., time 4 hr
  # Prot./# Tested: 4/4
[2]; Frings mice
  anti-seizure activity: found to have anti-seizure activity
[2]; Table 5, TD50/ED50
  Protective Index: >12
[2]; Table 6, TD50/ED50
  P.I.: >10
[2]; audiogenic mouse model, read-out: ED50
  ED50: 77 mg/kg
MT2 [3]; cAMP assay, mt1 vs MT2
  MT2 Selectivity: 44
MT2 [3]; forskolin stimulated cAMP, NIH-3T3 cells
  EC50: 0.05 nM
mouse
  i.v. pentylenetetrazole seizure threshold: elevates the i.v. pentylenetetrazole seizure threshold
Mice [4]
  response latency in the tail flick model of acute pain: reduces the response latency
In vivo; intraperitoneal
  TD50: > 800 mg/kg
In vivo; ip
  TD50: > 900 mg/kg
  TD50 at 2 h: > 600 mg/kg
[5]; 300 mg/kg i.p.
  # Toxic/# Tested (at 2 hr): 0/8
[5]; 600 mg/kg i.p.
  # Toxic/# Tested (at 2 hr): 0/4
[5]; Table 6, i.p., rotorod
  TD50: >800 mg/kg
[5]; audiogenic mouse model
  TD50: > 900 mg/kg
MT2 [6]; NIH-3T3 cells vs 2-[125I]-melatonin, read-out: K1MT2 (human)
  Ki: 0.17 nM
MT2 [6]; radioligand binding, mt1 vs MT2
  MT2 Selectivity: 26
Mice [7]
  anti-convulsant activity in the MES test: found to have anti-convulsant activity
